Reference: US20230165865A1, “HETEROARYLDIHYDROPYRIMIDINE DERIVATIVES AND METHODS OF TREATING HEPATITIS B INFECTIONS” (Janssen Pharmaceutica NV, priority 2018, published 2023)

Legend:
CYP3A4 = test: In vitro assessment of CYP3A4 induction in cryopreserved human hepatocytes (mRNA level); type: in vitro ADME
Experimental: Preparation and Plating of Human Hepatocytes • 1. The cryopreserved human hepatocytes were thawed in 37° C. water bath and diluted by plating medium to a seeding density of 0.55×10^6 cells/mL. • 2. Transfer 100 μL to each well of collagen I coated 96-well plate. Place plate(s) in incubator and incubate at 37° C. for 4-6 hours. • 3. After incubation, observe cell morphology, agitate plate(s) to loosen debris, and replace medium. Place plate in incubator and incubate for 18 hours. Incubation with Test Compound(s) • 1. Prepare dilute test compound and positive control inducers with 37° C. prepared incubation medium to respective working concentrations (Table 11). Final concentration of DMSO in the treatment group will be 0.1%. Prepare 25 mM chlorpromazine in DMSO and dilute 1000-fold with incubation medium as a cytotoxicity control. • 2. Remove the Hepatocyte plate from the incubator. Observe cell morphology. Replace the medium in the appropriate wells with 125 μL of the toxicity controls, DMSO controls, inducers, or test article solutions, each in triplicate. • 3. After 24 hours and 48 hours, remove the Hepatocyte plate from the incubator and observe cell morphology. Renew the medium with test articles that freshly diluted from DMSO stocks. Return plate to the incubator. 4. mRNA Preparation and RT-PCR • 1. mRNA was prepared and measured using the Cells-to-Ct kit. Add DNase to Lysis solution. • 2. 15 μL of sample lysate was added to 35 µL of Reverse Transcription Master Mix (containing 2×RT Buffer, 20×RT Enzyme Mix and Nuclease-free Water) for a final 50 μL reaction volume. • 3. Separate PCR cocktails were prepared for CYP3A4; containing the CYP specific probe set and that of ACTB as the endogenous control gene. […] Reactions were analyzed on an Applied Biosystems Real Time PCR system (AB 7500). […] For mRNA level determination, the mRNA content in each well is expressed as 2^Ct(ACTB)-Ct(CYP). Fold of induction=mRNA(induced)/mRNA(vehicle) 3) The percent adjusted positive control is determined by: % of positive control=[(fold induction of test article)/(fold induction of positive control)]*100

[1] = Cytotoxicity determination in HepG2.2.15 cells (CCK-8 assay); type: cell-based; details: human, 6 days treatment, CCK-8, highest concentration 100 uM
Outline: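 HepG2.2.15 cells (5,000/well, 2% FBS medium) were treated for 6 days, with medium and compound refreshed at day 3. Dosing was an 8-point 1:3 series from 100 uM, in triplicate. Viability was measured by CCK-8 after 2.5 h at 37 °C (A450, 630 nm reference), and CC50 was calculated.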

[2] = test system: cryopreserved human hepatocytes; test: Cell viability assessment in CYP induction study (CellTiter-Fluor); type: cell-based; details: donor 1, 10 μM, 72 hours
Experimental: Preparation and Plating of Human Hepatocytes • 1. The cryopreserved human hepatocytes were thawed in 37° C. water bath and diluted by plating medium to a seeding density of 0.55×10^6 cells/mL. • 2. Transfer 100 μL to each well of collagen I coated 96-well plate. Place plate(s) in incubator and incubate at 37° C. for 4-6 hours. • 3. After incubation, observe cell morphology, agitate plate(s) to loosen debris, and replace medium. Place plate in incubator and incubate for 18 hours.
Incubation with Test Compound(s) • 1. Prepare dilute test compound and positive control inducers with 37° C. prepared incubation medium to respective working concentrations (Table 11). Final concentration of DMSO in the treatment group will be 0.1%. Prepare 25 mM chlorpromazine in DMSO and dilute 1000-fold with incubation medium as a cytotoxicity control.
• 2. Remove the Hepatocyte plate from the incubator. Observe cell morphology. Replace the medium in the appropriate wells with 125 μL of the toxicity controls, DMSO controls, inducers, or test article solutions, each in triplicate. • 3. After 24 hours and 48 hours, remove the Hepatocyte plate from the incubator and observe cell morphology. Renew the medium with test articles that freshly diluted from DMSO stocks. […]
After 72 hours of treatment, warm the incubation medium to 37° C. […] Cell viability was assessed by CellTiter-Fluor™ Cell Viability Assay kit. […]

Structure (SMILES)	CYP induction effect, in words (CYP3A4; CYP3A4, comparing with reference 2)	CC50 at 6 days [1]	Cell viability [2]	mRNA Percentage of positive control at 10 uM (CYP3A4; CYP3A4 mRNA, donor 1, 10 μM, positive control rifampicin)	mRNA Fold induction (Mean ± SD) (CYP3A4; CYP3A4 mRNA, donor 1, 10 μM, vs vehicle)
CCOC(=O)C1=C(CN2CCN3C(=S)N(CC(C)(C)C(=O)O)CC3C2)NC(c2nccs2)=N[C@H]1c1cccc(F)c1C (single isomer, unassigned) [Compound 1A]	no CYP induction effect	22.5 µM	95%		
CCOC(=O)C1=C(CN2CCN3C(=O)N(CC(C)(C)C(=O)O)C[C@@H]3C2)NC(c2nccs2)=N[C@H]1c1cccc(F)c1C [Reference 2, reference compound]			117%	20.50%	5.05 ± 0.61
